Data from ChEMBL document CHEMBL1821577, “Discovery of GSK1997132B a novel centrally penetrant benzimidazole PPARγ partial agonist” (Bioorg Med Chem Lett, 2011).

Tests used:
[1] = biological target: T1, Peroxisome proliferator-activated receptor gamma (Homo sapiens, UniProt P37231); experiment: Partial agonist activity at human PPARgamma by luciferase reporter gene assay; assay type: functional
T1 sequence (P37231 whole entry): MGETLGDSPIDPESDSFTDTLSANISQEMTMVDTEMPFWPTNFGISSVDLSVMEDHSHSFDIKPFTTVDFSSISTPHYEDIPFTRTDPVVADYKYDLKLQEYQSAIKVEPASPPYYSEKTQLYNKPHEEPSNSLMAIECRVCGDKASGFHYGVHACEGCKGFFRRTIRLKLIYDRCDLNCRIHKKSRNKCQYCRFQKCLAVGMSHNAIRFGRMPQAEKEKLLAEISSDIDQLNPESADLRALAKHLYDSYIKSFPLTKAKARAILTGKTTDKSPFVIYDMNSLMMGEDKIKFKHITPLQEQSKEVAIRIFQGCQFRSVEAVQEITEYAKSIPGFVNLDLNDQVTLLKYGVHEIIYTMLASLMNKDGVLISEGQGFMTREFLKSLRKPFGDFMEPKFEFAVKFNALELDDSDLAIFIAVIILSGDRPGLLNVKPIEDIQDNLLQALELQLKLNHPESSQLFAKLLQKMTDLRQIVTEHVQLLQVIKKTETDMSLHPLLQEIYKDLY

[2] = biological target: T2, Peroxisome proliferator-activated receptor gamma (Homo sapiens) (UniProt P37231); experiment: Activity at human PPARgamma by luciferase reporter gene assay; set-up: concentration or dose not given beside the values
T2 sequence (whole entry): T1 sequence (P37231 whole entry)

[3] = Ratio of drug uptake in brain to blood at steady state in rat at 2 mg/kg/h, iv; assay type: ADME, organism-based; set-up: route intravenous
Brain [4] = experiment: Drug uptake in rat brain at steady state at 2 mg/kg/h, iv; assay type: ADME, organism-based; set-up: route intravenous; settings: in vivo, read-out: Drug uptake
Rattus norvegicus [5] = experiment: Blood clearance at steady state in rat at 2 mg/kg/h, iv; assay type: ADME, organism-based; set-up: route intravenous; settings: in vivo
Liver microsomes [6] = experiment: Intrinsic clearance in human liver microsome; assay type: ADME
Liver microsomes [7] = experiment: Intrinsic clearance in rat liver microsome; assay type: ADME
Rattus norvegicus [8] = experiment: Blood clearance in rat at 1 mg/kg, iv; assay type: ADME, organism-based; set-up: dose 1 mg/kg, route intravenous; settings: in vivo
[9] = Ratio of drug uptake in brain to blood in rat at 3 mg/kg, po; assay type: ADME, organism-based; set-up: dose 3 mg/kg, route oral
Brain [10] = experiment: Drug uptake in rat brain at 3 mg/kg, po; assay type: ADME, organism-based; set-up: dose 3 mg/kg, route oral; settings: in vivo, read-out: Drug uptake
Liver = experiment: Intrinsic clearance in rat liver S9 fraction; assay type: ADME, subcellular

Structure (SMILES)	EC50 [1] [nM]	Activity [2] [%]	other results
CC[C@@H](NC(=O)c1ccc2c(c1)ncn2Cc1ncccc1Cl)c1ccccc1	15.8	81	
CC[C@@H](NC(=O)c1ccc2c(c1)ncn2Cc1ccccn1)c1ccccc1	126	59	Kp [3]: 0.2; concentration (Brain [4]): 228 nM; clearance (Rattus norvegicus [5]): 78 mL/min/kg
CC[C@@H](NC(=O)c1ccc2c(c1)ncn2Cc1ccccc1OC)c1ccccc1	5.01	75	
CC[C@@H](NC(=O)c1ccc2c(c1)ncn2Cc1ccc(Cl)cn1)c1ccccc1	39.8	80	
CC[C@@H](NC(=O)c1ccc2c(c1)ncn2Cc1ccc(F)cc1F)c1ccccc1	1.58	73	CL (Liver microsomes [6]): 0.5 mL/min/g; Kp [3]: 0.59; concentration (Brain [4]): 455 nM; clearance (Rattus norvegicus [5]): 107 mL/min/kg; CL (Liver microsomes [7]): 3.7 mL/min/g
CC[C@H](NC(=O)c1ccc2c(c1)nc(C)n2Cc1ccc(Cl)c(Cl)c1)c1ccccc1	251	21	
CC[C@@H](NC(=O)c1ccc2c(c1)ncn2Cc1cccnc1)c1ccccc1	501	74	
CC[C@@H](NC(=O)c1ccc2c(c1)ncn2Cc1ccc(Cl)cc1)c1ccccc1	3.16	74	
CC[C@@H](NC(=O)c1ccc2c(c1)ncn2Cc1ccc(Cl)cc1Cl)c1ccccc1	0.501	77	
CC[C@@H](NC(=O)c1ccc2c(c1)nc(C)n2Cc1ccc(Cl)c(Cl)c1)c1ccccc1	39.8	75	
CC[C@@H](NC(=O)c1ccc2c(c1)ncn2Cc1ccccc1S(C)(=O)=O)c1ccccc1	398	73	
CC[C@@H](NC(=O)c1ccc2c(c1)nc(C)n2Cc1cccc(Cl)c1)c1ccccc1	79.4	76	
CC[C@@H](NC(=O)c1ccc2c(c1)nc(C)n2Cc1ccc(S(C)(=O)=O)cc1)c1ccccc1	5010	48	
Cc1nc2cc(C(=O)N[C@H](C)c3ccccc3)ccc2n1Cc1ccc(Cl)c(Cl)c1	50.1	77	clearance (Rattus norvegicus [8]): 75 mL/min/kg; CL (Liver microsomes [6]): 0.5 mL/min/g; Kp [9]: 0.29; concentration (Brain [10]): 12 nM; CL (Liver): 8.3 mL/min/g; CL (Liver microsomes [7]): 1.4 mL/min/g
CC[C@@H](NC(=O)c1ccc2c(c1)nc(C)n2Cc1ccc(F)cc1)c1ccccc1	158	74	
CC[C@@H](NC(=O)c1ccc2c(c1)ncn2Cc1ccc(F)c(Cl)c1)c1ccccc1	6.31	85	
CC[C@@H](NC(=O)c1ccc2c(c1)ncn2Cc1ccc(Cl)c(Cl)c1)c1ccccc1	2.51	71	CL (Liver microsomes [6]): 0.6 mL/min/g; Kp [3]: 0.71; concentration (Brain [4]): 655 nM; clearance (Rattus norvegicus [5]): 84 mL/min/kg; CL (Liver): 10 mL/min/g; CL (Liver microsomes [7]): 3.3 mL/min/g
